In PubChem BioAssay (NCI):
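A five-concentration, 48-hour dose response in 96-well plates underlies each endpoint, interpolated linearly between surrounding concentrations. TGI: total growth inhibition.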

Legend:
Test in all cases: growth of human tumour cells (NCI), 48 h
[1] = tested on: 786-0 renal
[2] = tested on: A498 renal
[3] = tested on: A549 NSCLC
[4] = tested on: ACHN renal
[5] = tested on: BT-549 breast
[6] = tested on: CAKI-1 renal
[7] = tested on: CCRF-CEM leukemia
[8] = tested on: COLO 205 colon
[9] = tested on: DU-145 prostate
[10] = tested on: EKVX NSCLC
[11] = tested on: HCT-116 colon
[12] = tested on: HCT-15 colon
[13] = tested on: HL-60(TB) leukemia
[14] = tested on: HOP-62 NSCLC
[15] = tested on: HOP-92 NSCLC
[16] = tested on: HS 578T breast
[17] = tested on: HT29 colon
[18] = tested on: IGROV1 ovarian
[19] = tested on: KM12 colon
[20] = tested on: LOX IMVI melanoma
[21] = tested on: M14 melanoma
[22] = tested on: MALME-3M melanoma
[23] = tested on: MCF7 breast
[24] = tested on: MDA-MB-231 breast
[25] = tested on: MDA-MB-435
[26] = tested on: MDA-N
[27] = tested on: MOLT-4 leukemia
[28] = tested on: NCI-H23 lung
[29] = tested on: NCI-H460 lung
[30] = tested on: NCI-H522 lung
[31] = tested on: NCI/ADR-RES ovarian
[32] = tested on: OVCAR-3 ovarian
[33] = tested on: OVCAR-4 ovarian
[34] = tested on: OVCAR-5 ovarian
[35] = tested on: OVCAR-8 ovarian
[36] = tested on: PC-3 prostate
[37] = tested on: RPMI-8226 leukemia
[38] = tested on: RXF 393 renal
[39] = tested on: SF-268 CNS
[40] = tested on: SF-295 CNS
[41] = tested on: SF-539 CNS
[42] = tested on: SK-MEL-2 melanoma
[43] = tested on: SK-MEL-28 melanoma
[44] = tested on: SK-MEL-5 melanoma
[45] = tested on: SK-OV-3 ovarian
[46] = tested on: SN12C renal
[47] = tested on: SNB-19 CNS
[48] = tested on: SW-620 colon
[49] = tested on: T-47D breast
[50] = tested on: TK-10 renal
[51] = tested on: U251 CNS
[52] = tested on: UACC-257 melanoma
[53] = tested on: UACC-62 melanoma
[54] = tested on: HCC-2998 colon
[55] = tested on: K-562 leukemia
[56] = tested on: NCI-H226 lung
[57] = tested on: SNB-75 CNS
[58] = tested on: SR leukemia
[59] = tested on: UO-31 renal

Measured: TGI

Fc1ccc(Nc2nnc(-c3ccccn3)s2)cc1
not listed: [54] | [55] | [56] | [57] | [58] | [59]
> 100 µM: all other assays above

Cc1csc2nc3[nH]ncc3c(=O)n12
not listed: [2] | [9] | [13] | [15] | [38] | [50]
> 100 µM: all other assays above
